Experimental data as given in article PMC6322304, “Phytohormone treatment induces generation of cryptic peptides with antimicrobial activity in the Moss Physcomitrella patens” (BMC Plant Biology, 2019).
Ends that are not written are not given here.

Columns and labels:
OPR3 gene = test: qRT-PCR of pathogenesis-related gene in treated protonema; type: cell-based, Physcomitrella patens; conditions: protonema incubated 1 h; MeJA 50 μM to 1 mM, SA 10 μM to 1 mM (Figure S8)
Description: Protonemata of the moss P. patens subsp. patens (“Gransden 2004”, Freiburg) were grown in 200 mL liquid Knop medium with 500 mg/L ammonium tartrate under white light with a photon flux of 61 μmol/m^2•s under a 16-h photoperiod at 24°C. For mass spectrometry analysis, five-d-old protonema tissue was treated with 0.4 mM MeJA and incubated for 1 h. […] To analyze antimicrobial activity of secretome five-d-old- protonema tissue was treated with different concentration of MeJA. Treatment with cocktail of protease inhibitors was performed according to the dilution 1:200, as recommended by the manufacturer (P1860 Sigma Aldrich, USA). At least three independent biological replicates were used for each type of analysis. To test the gene expression induced by the peptides, five-d-old protonema tissue was treated with either mock solution or 1 μM peptide solution and harvested after 2, 4, 8 and 24 h later. […]
Total RNA from protonemata was isolated as previously described. Quality and quantity were evaluated using electrophoresis on agarose gel with ethidium bromide staining. Total RNA concentration of samples was precisely measured using the Quant-iT™ RNA Assay Kit, 5–100 ng on a Qubit 3.0 (Invitrogen, US) fluorometer. cDNA was synthesized using the MMLV RT kit (Evrogen, Russia) according to the manufacturer’s recommendations. […]

B. subtilis 168 HT = type: cell-based, Bacillus subtilis; conditions: 20 h
Description: (§1) A serial dilution method in sterile 96 Well Collection Plates (Corning 3870) in liquid MHB medium was used to define the minimum inhibitory concentration (MIC) of the peptides against E. coli K-12 MG 1655 and B. subtilis 168 HT as previously described. Diluted peptide (50 μL) in MHB medium was added to each well at the appropriate concentration (128 to 0.25 μg/mL), along with 50 μL of bacterial suspension at a concentration of 10^6 CFU/mL of microbial cells. The experiment was carried out in three replicates. Liquid MHB medium without the addition of the peptide used as a negative control. The plates were incubated at 37°С for 20 h without mixing. The MIC of the peptides was assessed visually and by measuring the spectrophotometric absorbance at 570 nm to identify the concentration that inhibited the visible growth of bacteria.

E. coli K-12 MG 1655 = type: cell-based, Escherichia coli; conditions: K-12, 20 h
Description: as §1

[1] = system: E. coli and B. subtilis bacteria; type: cell-based, Escherichia coli; Bacillus subtilis
Description: as §1

CC/C=C\CC1C(=O)CCC1CC(=O)OC (centres unmarked) [MeJA, methyl jasmonate]
response of OPR3 transcription to hormone treatment (qRT-PCR) (OPR3 gene): clear response

INIINAPLQGFKIA [INIINAPLQGFKIA]
% inhibition, B. subtilis (B. subtilis 168 HT): >90% | MIC, B. subtilis (B. subtilis 168 HT): 32 µg/mL | % inhibition, E. coli (E. coli K-12 MG 1655): >90% | MIC, E. coli (E. coli K-12 MG 1655): 16 µg/mL

KIKVAINGFGRIG [synthetic copy of a cellular moss peptide, fragment of glyceraldehyde-3-phosphate dehydrogenase (GAPDH)]
concentration at which bacterial growth was inhibited ([1]; on day 1 after inoculation, bacterium not named): 128 µg/mL

LVQIGTKIVGVGRNYAAH [LVQIGTKIVGVGRNYAAH]
minimum inhibitory concentration (MIC) ([1]; bacterium not given, serial dilution with E. coli and B. subtilis): 64 µg/mL | % inhibition, B. subtilis (B. subtilis 168 HT): >90% | MIC, B. subtilis (B. subtilis 168 HT): 64 µg/mL | % inhibition, E. coli (E. coli K-12 MG 1655): >90% | MIC, E. coli (E. coli K-12 MG 1655): 64 µg/mL
